{"source": "patent EP2325187A1", "about": "“THE HYDROSULFATE OF PRASUGREL, ITS PHARMACEUTICAL COMBINATION AND USES THEREOF” (priority 2008, dated 2010)", "key": {"[1]": {"conditions": "dog, in vivo, 10 mg/kg", "description": "Six healthy male beagle dogs of around 7-month-old, without statistical difference in their weights, are used in the experiments and fed normally for 2 weeks without receiving any drug. Six beagle dogs are divided randomly into prasugrel bisulfate group and prasugrel hydrochloride group, with 3 dogs in each group. Following the process disclosed in Experimental Example 1 of Chinese Patent Publication No. CN1214031A, the pharmacokinetic parameters of S-methylate in the plasma of the dogs in each group after administration are determined (the administration dosage for both groups is 10mg/kg)."}, "[2]": {"tested_on": "platelet aggregation induced by collagen", "assay": "Inhibition of platelet aggregation induced by collagen (platelet-rich plasma taken from dosed rats)", "assay_type": "in vivo", "experimental": "(§1) […] male SD rats weighted 200-300g are provided by the Experimental Animal Center of Lunan Pharmaceutical Group corporation and are divided randomly into 5 groups with 10 rats in each group. The animals are acclimatized for one week before experiment. The animals in the excipient group (equivalent volume of physiological saline), prasugrel maleate group (10mg/kg), prasugrel bisulfate group (10mg/kg) are administered by gastric gavage once each day for 7 days.\n(§2) Two days after administered as above, the animals are starved over night. One hour after administered on the second day, the animals are anaesthetized by intraperitoneal injection of urethane, and then celiotomized to separate the abdominal aorta. A polyethylene cannula is inserted to collect 5 ml of blood into a test tube (in the tube is placed beforehand 0.5 ml of 3.8% sodium citrate solution, i.e. the ratio of the anticoagulant solution and blood is 1:9). The whole blood is centrifuged at 1000 rpm for 4 min. 1 ml of platelet-rich plasma (PRP) is taken. The remaining liquid is centrifuged at 3000 rpm for further 8 min. 1 ml of platelet-poor plasma (PPP) is taken. The two samples are placed separately in two plastic test tubes under a constant temperature of (37±0.1)°C. Using ADP (30 ul/tube) and collagen (30 ul/tube) as aggregation inducers, the maximum aggregation intensity is determined and the inhibition rate is calculated. Rate of inhibiting aggregation = (aggregation intensity for excipient group-aggregation intensity for experimental group)/aggregation intensity for excipient group × 100% [formula]"}, "rats": {"tested_on": "rats", "assay": "Determination of the rate of hemorrhage (hyperemia, oedema, hemorrhage in the gastric mucosa)", "assay_type": "in vivo", "experimental": "as §1\nAfter the rate of inhibiting aggregation is determined, the rats are sacrificed and dissected. The appearances of hyperemiam, oedema, hemorrhage in the gastric mucosa are examined with the aid of a magnifier, and the rats developed with hyperemiam, oedema, hemorrhage in the gastric mucosa are recorded into corresponding test groups as cases of hemorrhage."}, "[3]": {"tested_on": "platelet aggregation induced by ADP", "assay": "Inhibition of platelet aggregation induced by ADP (platelet-rich plasma taken from dosed rats)", "assay_type": "in vivo", "experimental": "as §1, §2"}, "[4]": {"conditions": "rats, 10mg/kg by gastric gavage, n=10 per group, gastric mucosa"}}}
{"smiles": "CC(=O)Oc1cc2c(s1)CCN(C(C(=O)C1CC1)c1ccccc1F)C2", "note": "(stereo not drawn) [Prasugrel Bisulfate, 2-acetyloxy-5-(α-cycloproylcarbonyl-2-fluorobenzyl)-4,5,6,7-tetrahydrothieno[3,2-C]pyridine bisulfate]", "values": [{"measurement": "AUC", "setting": "[1]", "value": "82.3 ± 7.6", "unit": "µg·min/mL"}, {"measurement": "Cmax", "setting": "[1]", "value": "1210 ± 130", "unit": "ng/mL"}, {"measurement": "bioavailability", "setting": "[1]", "value": "better bioavailability than prasugrel hydrochloride"}, {"measurement": "Collagen Aggregation Intensity (%)", "setting": "[2]; 10mg/kg by gastric gavage once each day, inducer collagen 30 ul/tube, maximum aggregation intensity", "value": "0.346±0.083", "unit": "%"}, {"measurement": "inhibition to platelet aggregation induced by collagen", "setting": "[2]; 10mg/kg, result in words", "value": "very significant inhibition"}, {"measurement": "inhibition at 10 mg/kg", "setting": "[2]; Rattus norvegicus, Platelet, po, 10mg/kg by gastric gavage once each day, inducer collagen 30 ul/tube, relative to excipient group, read-out: Collagen Inhibition Rate (%)", "value": "54.3 ± 13.5", "unit": "%"}, {"measurement": "rate of hemorrhage", "setting": "rats; rat, in vivo", "value": "significantly lower than that in the prasugrel maleate group"}, {"measurement": "Cases of Hemorrhage", "setting": "rats; [4]", "value": 1}, {"measurement": "Rate of Hemorrhage (%)", "setting": "rats; [4]", "value": 10, "unit": "%"}, {"measurement": "ADP Aggregation Intensity (%)", "setting": "[3]; 10mg/kg by gastric gavage once each day, inducer ADP 30 ul/tube, maximum aggregation intensity", "value": "0.336±0.075", "unit": "%"}, {"measurement": "inhibition to platelet aggregation induced by ADP", "setting": "[3]; 10mg/kg, result in words", "value": "very significant inhibition"}, {"measurement": "inhibition at 10 mg/kg", "setting": "[3]; Rattus norvegicus, Platelet, po, 10mg/kg by gastric gavage once each day, inducer ADP 30 ul/tube, relative to excipient group, read-out: ADP Inhibition Rate (%)", "value": "48.5 ± 10.6", "unit": "%"}]}
